{
  "source": "patent US20100022635A1",
  "about": "“Heat shock protein 90 inhibitor dosing methods” (University of Kansas, priority 2008, published 2010)",
  "key": {"[1]": {"experiment": "Pharmacokinetics: plasma and brain levels of KU-32 in mice by LC-MS", "format": "in vivo", "conditions": "female Balb/c mice, 2 or 20 mg/kg, IP or IV injection, FIG. 1", "procedure": "(§1) The plasma and brain levels of the Hsp90 inhibitor KU-32 as a function of time in mice were investigated following IP or IV injection to mice. Pharmacokinetics of KU-32 levels in mouse plasma and brain was determined by LC-MS. For these studies, female Balb/c mice (6-7 weeks) were injected with either 2 or 20 mg/kg KU-32 or vehicle. Mice were sacrificed at predetermined time points and plasma was collected following cardiac puncture for determination of KU-32 levels. The animals were perfused with normal saline and the brain was harvested and homogenized. Half the brain was analyzed for KU-32 levels and the remaining half was analyzed for Hsp70 levels."}, "Hsp70": {"tested_on": "Hsp70", "experiment": "Hsp70 levels in mouse brain after KU-32 IP administration (Hsp70/actin densitometry)", "format": "in vivo, mice", "conditions": "single IP injection 2 or 20 mg/kg, frontal and hind brain sections, FIG. 2", "procedure": "as §1\nChanges in Hsp70 levels in mouse brain over time following KU-32 IP administration were determined. The ratio of Hsp70 to actin was determined in frontal and hind brain sections recovered from brains of mice at each indicated time point shown in FIG. 2 following administration of either 2 or 20 mg/kg KU-32, as discussed in Example 1. Densitometric analyses were performed, and the ratio of the Hsp70 immunoreactivity was determined using actin as a loading control."}, "[2]": {"experiment": "Phase-solubility of KU-32 in Captisol in water", "format": "physicochemical", "procedure": "On day 12 of the study mice received 2, 5 or 10 mg/kg KU-32 by IP injection on a daily basis. KU-32 was formulated at all concentrations in 0.05 M Captisol®. To access the phase-solubility behavior of KU-32 in Captisol®, KU-32 in excess of its expected solubility were equilibrated with increasing concentrations of Captisol® in water. The suspensions were allowed to equilibrate at least 24-hours at 25° C., after which time the suspensions were centrifuged and the KU-32 concentration in the supernatant determined by RP-HPLC."}, "[3]": {"tested_on": "Experimental Autoimmune Encephalomyelitis; EAE", "experiment": "Daily dosing in murine EAE multiple sclerosis model", "format": "in vivo, mice", "from_the_text": "In this example, female SJL/J mice (6-7 weeks old) were immunized with proteolipid protein (“PLP”) in CFA and pertussis toxin IV on day 0. The mice were boosted with PLP in IFA on day seven."}, "EAE model": {"tested_on": "EAE model", "experiment": "Single vs. weekly dosing in murine EAE MS model", "format": "in vivo, mice", "conditions": "single 20 mg/kg IP dose at onset of symptoms, first onset of disease (10-20 days)", "procedure": "In this example, female SJL/J mice (6-7 weeks old) were immunized with proteolipid protein (“PLP”) in CFA and pertussis toxin IV on day 0. The mice were boosted with PLP in IFA on day seven. At the onset of symptoms, mice received either a single 20 mg/kg dose of KU-32 IP, weekly 2 mg/kg IP doses of KU-32, or no treatment. The mice were scored daily for severity of disease and body weight."}, "[4]": {"tested_on": "neuregulin-induced demyelination", "experiment": "Cell culture model of myelinated nerve", "format": "cell-based", "from_the_text": "Diabetic peripheral neuropathy (DPN) results from the degeneration of nerves that transmit sensations from the legs and arms. Schwann cells are specialized cells that closely associate with many nerves and also undergo profound changes in DPN. Schwann cells are necessary to form the myelin membrane that is present on many peripheral nerves and the loss of this myelin membrane is a common characteristic of human diabetic neuropathy. Identifying molecular mechanisms that may prevent demyelination or enhance remyelination are therefore good targets for therapeutic interventions in human DPN. Altered neurotrophism in DPN is described in detail in, for example, Dobrowsky et al., JPET 313:485-491, 2005. Heat shock protein 90 inhibitors offer a potential therapeutic approach toward treating DPN. A cell culture model of myelinated nerve was used to identify new molecular targets that can prevent demyelination."}, "[5]": {"tested_on": "streptozotocin (STZ)-induced diabetic neuropathy", "experiment": "STZ-induced diabetic neuropathy mouse model, initial studies (treatment after 8 weeks of diabetes)", "format": "in vivo", "procedure": "Physiological studies were performed in a diabetic mouse model to determine if KU-32 is suitable for further pre-clinical development. A mouse model of streptozotocin (STZ)-induced diabetic neuropathy was utilized. One such diabetic mouse model is described, for example, in Christianson et al., Neuroscience, 2007, 145 (1): 303-313. […] Thus, although the drug was capable of attenuating the decline in SNCV, a more powerful indicator of efficacy and clinical usefulness was desired to indicate the drug could reverse a pre-existing deficit in NCV. […] The study was therefore repeated with a larger trial size and under more stringent long-term diabetic conditions prior to weekly drug administration."}, "[6]": {"tested_on": "streptozotocin (STZ)-induced diabetic neuropathy", "experiment": "STZ-induced diabetic neuropathy mouse model, second trial (treatment after 12 weeks of diabetes)", "format": "in vivo", "procedure": "In a second trial, mice were rendered diabetic for 12 weeks. Diabetes was induced in test mice by 3 injections of streptozotocin (STZ) (n=28), and control mice (n=28) received a vehicle injection. Nerve conduction velocity (NCV) was measured in 4 mice from each group after 12 weeks, prior to initiating KU-32 treatment, after which time they developed substantial deficits in MNCV and SNCV (FIG. 7). Asterisks indicates p<0.05 compared to the time matched control. Diabetic mice also developed a substantial mechanical hypoalgesia after 5 weeks (FIG. 8) and a rapid onset of a thermal hypoalgesia (FIG. 9). Thus, any improvements by KU-32 were considered to be indicative of reversibility of a pre-existing deficits and not prevention.\nAfter 12 weeks of diabetes, mice received weekly doses of 20 mg/kg KU-32 or vehicle by IP injection, and thermal and mechanical hypoalgesia were monitored. […] The asterisk indicates p<0.05 compared to the time matched control. The carat indicates p<0.05 compared to 14 weeks of STZ-Veh. Animal numbers were n=28 for Veh-Veh and STZ-Veh up to 12 weeks. Group numbers were n=12 at initiation of KU-32 and its vehicle (Veh).\nThe asterisk indicates p<0.05 compared to the time matched control, and the carat indicates p<0.05 compared to 14 weeks of STZ-Veh. Animal numbers were n=28 for Veh-Veh and STZ-Veh up to 12 weeks. Group numbers were n=12 at initiation of KU-32 and its vehicle (Veh).\nImportantly, a similar recovery was evident after 12 weeks of diabetes despite the onset in improvement requiring 4 weeks of treatment. The delay may relate to the more severe decline in the function of the smaller sensory fibers since treatment was not started until 12 weeks of diabetes. The diabetic mice were very ill after 16 weeks and therefore were terminated at this time. […] Since the deficits in mechanical and thermal hypoalgesia reached a plateau between 12-14 weeks, the measures at 14 weeks of diabetes were used to assess for statistical improvements in sensory function after 3 or more weeks of KU-32 treatment. […] Thus, KU-32 improves nerve function in the absence of an overall improvement in metabolic parameters related to diabetes, i.e., hyperglycemia and weight loss. The data provides solid proof-of-principle that KU-32 can effectively reverse pre-existing deficits in two sensory measures that are direct, clinically relevant, parallels of human symptoms."}, "[7]": {"conditions": "weekly 20 mg/kg IP after 8 weeks of diabetes, did not reach significance"}, "[8]": {"conditions": "diabetic animals receiving KU-32 compared to the diabetic mice"}},
  "data": [
    {"molecule": "CO[C@@H]1[C@@H](O)[C@@H](O)[C@H](Oc2ccc3cc(NC(C)=O)c(=O)oc3c2C)OC1(C)C", "note": "[KU-32, N-(7-((2R,3R,4S,5R)-3,4-dihydroxy-5-methoxy-6,6-dimethyltetrahydro-2H-pyran-2-yloxy)-8-methyl-2-oxo-2H-chromen-3-yl)acetamide]", "values": [
      {"measurement": "KU-32 levels in mouse plasma and brain over time", "setting": "[1]", "result": "fall below detectable limits by eight hours"},
      {"measurement": "Hsp70 levels in mouse brain (ratio of Hsp70 to actin)", "setting": "Hsp70", "result": "increased following single IP injection of KU-32 in mice over a 72-96 hour period and remained elevated"},
      {"measurement": "phase-solubility behavior", "setting": "[2]; 0.05-0.2 M Captisol in water, at least 24 hours at 25° C., RP-HPLC", "result": "AP-type"},
      {"measurement": "solubility in 0.05 M Captisol", "setting": "[2]; 0.05 M Captisol", "result": "adequate solubility"},
      {"measurement": "body weights", "setting": "[3]; SJL/J mice, 2, 5 or 10 mg/kg IP daily from day 12, FIG. 3", "result": "increase in the rate of onset and worsening of the disease"},
      {"measurement": "clinical score", "setting": "[3]; SJL/J mice, 2, 5 or 10 mg/kg IP daily from day 12, FIG. 4", "result": "increase in the rate of onset and worsening of the disease"},
      {"measurement": "clinical score", "setting": "EAE model; FIG. 5", "result": "better clinical score"},
      {"measurement": "body weight", "setting": "EAE model; FIG. 6", "result": "lost less body weight"},
      {"measurement": "neuregulin-induced demyelination", "setting": "[4]", "result": "prevent neuregulin-induced demyelination"},
      {"measurement": "time to improvement in thermal sensitivity", "setting": "[5]; treatment initiated after 8 weeks of diabetes", "result": "evident within two weeks"},
      {"measurement": "thermal hypoalgesia", "setting": "[5]; weekly 20 mg/kg IP after 8 weeks of diabetes", "result": "sufficient to improve thermal hypoalgesia"},
      {"measurement": "sensory nerve conduction velocity (SNCV)", "setting": "[5]; weekly 20 mg/kg IP after 8 weeks of diabetes, decrease observed after 15 weeks of diabetes", "result": "helped to improve the decrease in sensory nerve conduction velocity"},
      {"measurement": "mechanical hypoalgesia", "setting": "[5]; [7]", "result": "seemed to have an effect on mechanical hypoalgesia"},
      {"measurement": "motor NCV (MNCV) deficit", "setting": "[5]; [7]", "result": "improved the pre-existing motor NCV (MNCV) deficit"},
      {"measurement": "body weight", "setting": "[6]; [8]", "result": "no differences"},
      {"measurement": "fasting blood glucose", "setting": "[6]; [8]", "result": "no differences"},
      {"measurement": "onset in improvement of thermal sensitivity", "setting": "[6]; treatment started after 12 weeks of diabetes", "result": "4 weeks of treatment"},
      {"measurement": "mechanical hypoalgesia", "setting": "[6]; weekly 20 mg/kg IP after 12 weeks of diabetes, FIG. 8", "result": "significantly improved the mechanical hypoalgesia after 3 weeks of treatment"},
      {"measurement": "thermal hypoalgesia", "setting": "[6]; weekly 20 mg/kg IP after 12 weeks of diabetes, FIG. 9", "result": "improved thermal hypoalgesia"}
    ]}
  ]
}
